Patent publication US8956622B2, “Peptidic antagonists of class III semaphorins/neuropilins complexes” (INSERM—Institut National de la Sante et de la Recherche …, priority 2005, dated 2015)

Experiments:
[1] = tested on: VEGF165 signalling in C6 cells; assay: VEGF165-induced migration of C6 tumour cell aggregates in 3D matrix (plasma clot); format: cell-based; conditions: VEGF165 50 ng/ml, peptide 10^−8 M
Method: NRP1 is a receptor of VEGF (NEUFELD et al., Adv. Exp. Med. Biol., vol. 515, p: 81-90, 2002). We therefore verified that pTM-NRP1 can antagonize VEGF signalling in C6 cells. To this end, C6 tumour cell aggregates prepared as previously described (see BAGNARD et al., 1998; and NASARRE et al., Neoplasia, vol. 7, p: 180-189, 2005) were grown in the 3D matrix (plasma clot) and treated with VEGF165.

[2] = tested on: cortical axons collapses triggered by Sema3A; assay: Cortical axons collapses triggered by Sema3A in neocortex explants; format: cell-based, mouse; conditions: peptide 10^−8 M, Sema3A 100 ng/ml
Method: The inhibitory axon growth property of Sema 3A is supposed to be linked to its induction capacity of growth cone collapses. To investigate the effect of the pTM-NRP1 peptide on the Sema 3A functional properties, the growth of cortical neurons was analyzed in the presence or not of Sema 3A and of pTM-NRP1 or pTM-NRP1^mut (NRP1 TM with a triple G→V mutation) peptides.
Laminine/Poly-L-Lysine substrates have been made by adding 980 μL of Gey's balanced salt solution (GBSS, SIGMA) to 10 μL laminine (1 mg/ml, SIGMA) and to 10 μL poly-L-Lysine (10 mg/ml, SIGMA). Sterile coverslips have been placed in a big dish and added with substrate (100 μL). Then, ‘sandwiches’ have been prepared by covering each coverslip with a second one. After an incubation for at least 30 min at 37° C. under 5% CO2 in air, ‘sandwiches’ have been opened and each coverslip has been rinsed with deionized water. Explants have been cultured on dried coverslips.
Neocortex fragments prepared from E15 mouse embryos (E1 determined as the first day of embryonic development by detection of vaginal plug) have been transferred on a tissue chopper disk. Tissue have been cut into 200×200 μm by rotating the disk by 90° after the first cut. Cortex cubes have been collected with a spatula and put into culture medium in a Petri dish. Two coverslips with substrate have been placed in a small Petri dish (50 mm diameter, FALCON). After adding 750 μl of culture medium, the coverslips should stay in the incubator for at least 10 minutes. Using a dissecting microscope, forty to fifty cortical explants have been collected in 20 μl culture medium and carefully placed onto the coverslips. After 15 min at room temperature, most explants have adhered to their substrate. 2250 μl of culture medium have been slowly added to each dish. Then, explants cultures have been kept at 37° C. under 5% CO2 in air.
A radial outgrowth could be seen after 18-24 h in culture, and individual fibres and growth cones could have therefore been analyzed. Products tested on growth cones have been directly added in culture medium for 2 h: • purified Sema3A (100 ng/ml) prepared from conditioned medium of HEK293 cells stably expressing Sema3A. The purification was performed by using the anti-Flag system, SIGMA) • pTM-NRP1 (10^−8, 10^−9, 10^−10 and 10^−11 M), • 10^−8M mpTM-NRP1, • 10^−8M pTM-ErbB2w (SEQ ID NO. 18).
After incubation, 4% formaldehyde has been directly added in culture medium (v/v) for 15min. Then the solution has been removed and replaced by 4% formaldehyde for 15 min.

[3] = tested on: COS-1 cells expressing NRP1 and Plexin-A1; assay: COS cellular collapses triggered by Sema3A; format: cell-based; conditions: peptide 10^−9 M, 1 hour pre-incubation, Sema 3A 4 hours
Method: Nevertheless, the artificial expression of NRP1 and Plexin-A1 in COS cells allows Sema 3A to trigger cellular collapses. To investigate the effect of the pTM-NRP1 peptide on the Sema3A functional properties, the shape of COS cells expressing NRP1 and Plexin-A1 was analyzed in the presence or not of Sema 3A and of pTM-NRP1 or pTM-NRP1^mut peptide.
COS-1 cells have been transfected by 1 μg of pBK-CMV (STRATAGENE) plasmids containing NRP1 and plexin-A1 coding sequences (provided by Pr. PUSCHEL; MUNSTER Universitat, Germany) with LIPOFECTAMINE 2000 (IN VITROGEN) according to the manufacturer's instructions in 6-well plates. Stably COS-1 transfected cells have been selected with 0.7% geneticine. Stably transfected COS-1 cells have been cultured on 12-well plates with previously poly-L-lysine-coated glass coverslips. Cells have been then incubated 1 hour with pTM-NRP1 or pTM-NRP1^mut peptide (10^−9M) at 37° C. The culture medium has been then removed and replaced by conditioned medium of HEK cells stably transfected or not with a construction expressing Sema 3A (100 μl/ml D-MEM) for 4 hours at 37° C. Finally, cells have been fixed with 2% formaldehyde for 30 minutes followed by 15 minutes in formaldehyde 4%. For each condition tested, about 400 cells have been analyzed.

NRP1 [4] = target: T1, NRP1 (Rattus norvegicus, UniProt Q9QWJ9); assay: AP-Sema3A binding to its receptor NRP1 on C6 glioma cells (luminescence); conditions: peptide 10^−12 M to 10^−10 M, 1 hour
T1 construct: Rat C6 glioma cells, which express semaphorin receptors; endogenous in cells; host or cells: rat C6 glioma cells
Method: In order to investigate the NRP1 transmembrane domain role in the linkage NRP1-class III semaphorins, the binding of the ligand Sema3A to its receptor NRP1 on glioma cells was measured in the presence or not of the transmembrane domain peptide of NRP1 (pTM-NRP1 peptide; SEQ ID NO. 1) or of a mutated peptide (mpTM-NRP1; SEQ ID NO. 20, […]). These pTM-NRP1 Peptides have been synthesized by automatic peptidic synthesis (Fmoc chemistry, APPLIED SYSTEM), and analyzed by mass spectrometry. Peptides purity has been estimated by RP-HPLC (BECKMAN) as higher than 90%.
Rat C6 glioma cells, which express semaphorin receptors, has been used to determine the binding capacity of AP-Sema3A, a secreted alkaline phosphatase version of Sema 3A (ADAMS et al., 1997, BAGNARD et al., 1998). These cells were grown and plated in MEM medium (GIBCO) with 10% foetal calf serum (PERBIO), glutamine 0.5 mM (GIBCO) and antibiotics: 100 U/ml penicillin and 100 μg/ml streptomycin (SIGMA).
C6 Cells were cultured in 96-well plates and incubated with or without freshly diluted pTM-NRP1 or pTM-NRP1^mut peptides (10^−12 M to 10^−10 M) for 1 hour at 37° C. The culture medium has been then replaced by conditioned medium of HEK cells stably transfected with a construction expressing AP-Sema 3A (ADAMS et al., EMBO J., vol. 16(20), p: 6077-86, 1997; BAGNARD et al., 1998). Conditioned medium from HEK non transfected cells has been used as an internal control. The pTM-NRP1 Peptide has been synthesized by automatic peptidic synthesis (Fmoc chemistry, APPLIED SYSTEM), and analyzed by mass spectrometry. Peptides purity has been estimated by RP-HPLC (BECKMAN) as higher than 90%, the cells have been washed with PBS and incubated with 50 μl of alkaline phosphatase luminescent substrate (AMERSHAM). The luminescence has been read after 15 minutes with MICROLUMAT PLUS system (BERTHOLD TECHNOLOGIES) according to the manufacturer's instructions. Experiments were done 4 times for each peptide.

NRP1 [5] = target: T2, NRP1 (Homo sapiens, UniProt O14786); assay: AP-Sema3A binding to NRP1-expressing COS cells (optical density per cell); conditions: peptide 10^−9 M, 1 hour pre-incubation
T2 construct: mutations were introduced into the TM domain of a full length NRP1; expressed in transfected cells; host or cells: COS-1 cells, pBK-CMV plasmid (cDNA provided by Pr. Puschel)
Method: NRP1 expressing COS cells were incubated with AP-Sema3A, a fusion protein of Sema3A and the secreted alkaline phosphatase (BAGNARD et al., 1998).
Wild-type COS cells or NRP1-expressing COS cells (COS-NRP1) were cultured on 12-wells plates on poly-L-lysine-coated glass coverslips (0.005 mg/ml). After one-hour incubation with pTM-NRP1 or pTM-NRP1^mut (10^−9M) in serum-free medium at 37° C., the culture medium was replaced by conditioned medium containing alkaline phosphatase-coupled Sema3A (AP-Sema3A; BAGNARD et al., 1998) obtained from AP-Sema3A stably expressing HEK cells for 90 mn. Conditioned medium without semaphorin served as a control (obtained from non-transfected HEK). Cells were washed three times with PBS and fixed in 4% formaldehyde before transfer in a new dish. After three washes in PBS, the plate was warmed for 50 mn at 65° C. Cells were subsequently incubated with 1 ml of alkaline phosphatase substrate (NBT/BCIP, SIGMA) in the dark. After 45 mn, substrate was removed and glass coverslips were rinsed. Pictures were acquired with a conventional microscope and analyzed with AxioVision LE Zeiss software. For each condition tested, about 60 cells were analyzed to determine binding levels as a function of optical density. Statistical analysis was performed by using a Student's t test.

T2 sequence (O14786 22-923): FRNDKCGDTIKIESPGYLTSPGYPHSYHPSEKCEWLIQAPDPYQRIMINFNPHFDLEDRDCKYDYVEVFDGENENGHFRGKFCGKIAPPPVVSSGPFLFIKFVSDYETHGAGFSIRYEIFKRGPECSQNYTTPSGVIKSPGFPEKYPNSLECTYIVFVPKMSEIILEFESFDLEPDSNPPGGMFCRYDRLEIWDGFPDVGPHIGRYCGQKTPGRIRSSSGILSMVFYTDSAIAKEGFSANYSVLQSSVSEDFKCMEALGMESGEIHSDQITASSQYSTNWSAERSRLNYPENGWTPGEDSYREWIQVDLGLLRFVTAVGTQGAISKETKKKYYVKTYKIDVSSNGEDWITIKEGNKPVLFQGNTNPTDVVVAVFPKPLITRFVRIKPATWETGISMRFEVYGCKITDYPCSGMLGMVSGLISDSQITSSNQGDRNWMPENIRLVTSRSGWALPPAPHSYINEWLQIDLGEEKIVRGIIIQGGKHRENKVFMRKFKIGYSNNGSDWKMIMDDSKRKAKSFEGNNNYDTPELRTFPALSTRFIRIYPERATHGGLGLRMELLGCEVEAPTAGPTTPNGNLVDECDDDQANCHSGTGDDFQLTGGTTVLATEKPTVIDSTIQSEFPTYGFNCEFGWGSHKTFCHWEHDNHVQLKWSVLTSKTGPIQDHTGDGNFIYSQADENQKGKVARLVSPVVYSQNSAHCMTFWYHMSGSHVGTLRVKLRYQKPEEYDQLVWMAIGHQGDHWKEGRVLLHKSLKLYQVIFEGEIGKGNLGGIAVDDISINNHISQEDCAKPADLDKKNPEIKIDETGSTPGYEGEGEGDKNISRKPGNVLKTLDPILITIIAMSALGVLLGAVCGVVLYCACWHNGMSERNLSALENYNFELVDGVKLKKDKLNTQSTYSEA

Sequence | VEGF165-dependent C6 cells migration out of aggregates [1] | effect on cortical axons collapses triggered by Sema3A [2] | effect on cellular collapses of COS-1 cells triggered by Sema 3A [3] | binding of AP-Sema3A to its receptor NRP1 on C6 cells (NRP1 [4]) | binding of AP-Sema3A to NRP1-expressing COS cells (NRP1 [5])
ILITIIAMSALVVLLVAVCVVVLYRKR [pTM-NRP1^mut, reference compound] | not able to block | did not block | did not block | did not block | did not block
SIISAVVGILLVVVLGVVFGILI [ErbB2 peptide, reference compound] | – | no effect | – | – | –
